Test results from patent US10214507B2, “Carbazole-containing amides, carbamates, and ureas as cryptochrome modulators” (Reset Therapeutics, Inc., priority 2014, dated 2019).
Like-named read-outs stand apart in the source and are kept apart here.

How the values were obtained:
[1] = Pharmacokinetic analysis in ICR mice (plasma and liver, LC/MS/MS); assay type: in vivo, mouse; conditions: 50 mg/kg P.O.; for Cmax / Tmax / half-life / MRT last: male, ICR, po; for Cmax: 50 mg/kg; for half-life: read-out: Elimination T1/2 (converted); for MRT last: read-out: MRT (0-last, hr)
Protocol: Male ICR mice (weighing 30-40 g, Charles River Laboratories) were used for the experiment with n=3 mice for each experimental group (27 mice total for the study). […] Blood and liver tissue were collected at the following time points after administration: 15, 30, 60, 90 minutes, 3, 6, 12 and 24 hours. A control group of animals (TO) was also sampled. Animals were euthanized with CO2 and the blood collected from the heart using cardiac puncture, transferred to an EDTA tube, and then centrifuged at 5400 rpm for 5 minutes at 4° C. The resultant plasma was frozen using dry ice and then stored at −80° C. until ready for assay. Liver tissue was removed from each animal, 0.5 g was collected in an eppendorff, frozen and submitted for pharmacokinetic measurement. […] Raw data was analyzed using WinNonLin for PK parameters (Cmax, Tmax, elimination t^1/2, MRT (mean residence time), AUC (area under the curve)−(0-last and % extrapolated).

[2] = system: cortisone-induced insulin resistance in Sprague Dawley rats; assay: Cortisone induced insulin resistance in rats; assay type: in vivo, rat; conditions: cortisone 30 mg/kg sc + 50 mg/kg po
Protocol: Animals were dosed with cortisone (30 mg/kg sc qd) in combination with test compounds for 6 days and then terminated 27 hours after the final dose of cortisone. A reference standard (Mifepristone) was also included. Cortisone 21-acetate (Sigma C-3130) was supplied by RenaSci and administered using a dose volume of 5 ml/kg via the subcutaneous route as a fine suspension in 1% methylcellulose. […] Mifepristone (Sigma M8046) was provided by RenaSci.
Glucose and insulin determinations were performed on plasma samples obtained from a tail vein bleed taken after a 12 h fast, approximately 27 h after the last cortisone dose. Animals were then terminated and a terminal (cardiac) blood sample taken from which plasma was prepared.
Thirty four male Sprague Dawley rats (weight range 200-250 g) were ordered from Charles River, Margate, Kent, UK. […] Subsequently, animals underwent a 3 day baseline period during which they were dosed once daily with vehicle at t=0 h (07:00). […] Body weight was recorded immediately before dosing began at 07:00 (t=0 h).
On Day 6 of dosing rats were fasted for 12 h beginning at 22:30 (timed to coincide with the Day 7 termination). […] At 10:30 on Day 7, 27 h after the final dose of cortisone, a blood sample (300 μl) was taken from the lateral tail vein into tubes containing EDTA (Sarstedt 16.444). The blood was centrifuged and resultant plasma aliquot stored at −75° C. The animals were euthanized by CO2 asphyxiation followed by cervical dislocation. Terminal blood (approximately 10 ml) was collected by cardiac puncture into tubes containing EDTA (Sarstedt 5 ml 32.332) and then centrifuged and plasma stored at −75° C. The tail vein plasma was analyzed for glucose (n=2) using a commercial clinical reagent (Thermoelectron Infinity glucose reagent (TR15421) and for insulin (n=1) using the Mercodia ultrasensitive rat insulin rat ELISA (10-1251-10).
Plasma glucose and insulin were analyzed by robust regression or general linear model with treatment as a factor and bleeding order and baseline body weight as covariates. A log transformation was used if appropriate. Appropriate multiple comparison tests (two-tailed) were used to determine significant differences from the vehicle group and from the Cortisone group. P<0.05 was considered to be statistically significant.

O=C1NCCN1CC(O)Cn1c2ccc(F)cc2c2cc(F)ccc21 (stereo not shown) [Compound 72, 1-(3-(3,6-difluoro-9H-carbazol-9-yl)-2-hydroxypropyl)imidazolidin-2-one]
Cmax ([1]; mouse, liver, mouse liver, read-out: Cmax): 7890 ng/mL | Cmax ([1]; mouse, liver, mouse, unbound, read-out: Cmax UB (liver)): 288 ng/mL | Cmax ([1]; mouse, plasma, mouse plasma, read-out: Cmax): 1150 ng/mL | Cmax ([1]; mouse, plasma, mouse, read-out: Cmax (plasma)): 1150 ng/mL | Cmax ([1]; mouse, plasma, mouse, unbound, read-out: Cmax UB (plasma)): 41.9 ng/mL | Tmax ([1]; mouse liver): 0.25 to 0.5 h | half-life ([1]; mouse liver): 3.4 h | MRT last ([1]; mouse liver): 4.74 h | Tmax ([1]; mouse plasma): 0.25 to 0.5 h | half-life ([1]; mouse plasma): 3.13 h | MRT last ([1]; mouse plasma): 5.3 h | % AUC extrapolated ([1]; mouse liver): 0.85% | AUC (total; ng · hr/mL) ([1]; mouse liver): 17961 ng·h/mL | % AUC extrapolated ([1]; mouse plasma): 1.74% | AUC (total; ng · hr/mL) ([1]; mouse plasma): 4236 ng·h/mL | Cmax (liver) ([1]; mouse): 7890 ng/mL | Total Liver AUC (0-last) ([1]; mouse): 17822 | Unbound Liver AUC (0-last) ([1]; mouse): 650.5 | Unbound Plasma AUC (0-last) ([1]; mouse): 151.5 | HOMA-IR ([2]; insulin resistant rats): 56.94+/−11.18 units | fasted plasma glucose ([2]; rats): 8.55 ± 0.3 mM | fasted plasma insulin ([2]; rats): 5.24 ± 1.1 ng/mL
